Laboratory results taken from patent EP0410762A1, “Naphthyridine derivatives” (DowElanco, priority 1989, dated 1991).

Experiments:
Format in all cases: in vivo
[1] = tested on: Erysiphe graminis tritici; experiment: Greenhouse Test 1, foliar spray fungicide screen: powdery mildew; details: disease control rating, host wheat, 400 ppm (+++ at 100 ppm)
Pyricularia oryzae = details: disease control rating; foliar spray; host rice; 400 ppm (+++ at 100 ppm)
[2] = tested on: Puccinia recondita tritici; experiment: Greenhouse Test 1, foliar spray fungicide screen: leaf rust; details: disease control rating, host wheat, 400 ppm (+++ at 100 ppm)
Botrytis cinerea = experiment: Greenhouse Test 1, foliar spray fungicide screen: gray mold; details: disease control rating, host grape berries, 400 ppm (+++ at 100 ppm)
[3] = tested on: Pseudoperonospora cubensis; experiment: Greenhouse Test 1, foliar spray fungicide screen: downy mildew; details: disease control rating, host squash, 400 ppm (+++ at 100 ppm)
[4] = tested on: Southern corn rootworm (Diabrotica undecimpuctata howardi Barber); experiment: Mite/insect screen: corn rootworm, treated soil; details: percent mortality, soil treatment; for mortality at 12 ppm: CRW rate 12.00 PPM; for mortality at 24 ppm: CRW rate 24.00 PPM
[5] = tested on: southern armyworm (Spodopetra eridania Cramer); experiment: Mite/insect screen: southern armyworm on sprayed squash leaves; details: Spodoptera eridania, percent mortality, leaf spray, read-out: SAW RESULTS; for mortality at 200 ppm: rate 200 PPM; for mortality at 400 ppm: rate 400 PPM
[6] = tested on: Twospotted spider mites (Tetranychus urticae Koch); experiment: Mite/insect screen: twospotted spider mites on sprayed squash cotyledons; details: percent mortality, leaf spray, read-out: SM RESULTS; for mortality at 200 ppm: rate 200 PPM; for mortality at 400 ppm: rate 400 PPM
[7] = tested on: melon aphids (Aphis gossypii Glover); experiment: Mite/insect screen: melon aphids on sprayed squash cotyledons; details: percent mortality, leaf spray, read-out: MA RESULTS; for mortality at 200 ppm: rate 200 PPM; for mortality at 400 ppm: rate 400 PPM
Cercospora beticola = experiment: Greenhouse Test 1, foliar spray fungicide screen: leaf spot; details: disease control rating, host sugar beet, 400 ppm (+++ at 100 ppm)
Venturia inaequalis = experiment: Greenhouse Test 1, foliar spray fungicide screen: apple scab; details: disease control rating, host apple seedling, 400 ppm (+++ at 100 ppm)
Septoria tritici = experiment: Greenhouse Test 1, foliar spray fungicide screen: leaf blotch; details: disease control rating, host wheat, 400 ppm (+++ at 100 ppm)

SMILES | POWD MDEW [1] | RICE BLAST (Pyricularia oryzae) | LEAF RUST [2] | GRAY MOLD (Botrytis cinerea) | DOWN MDEW [3] | mortality at 12 ppm [4] | mortality at 24 ppm [4] | mortality at 200 ppm [5] | mortality at 400 ppm [5] | mortality at 200 ppm [6] | mortality at 400 ppm [6] | mortality at 200 ppm [7] | mortality at 400 ppm [7] | LEAF SPOT (Cercospora beticola) | APPL SCAB (Venturia inaequalis) | LEAF BLOT (Septoria tritici)
Fc1ccc(Oc2ccnc3ncccc23)cc1 [Example 1, 4-(4-fluorophenoxy)-1,8-naphthyridine] | + (+ = 20-89% control at 400 ppm) | - (- = 0-19% control at 400 ppm) | ++ (++ = 90-100% control at 400 ppm) | - (- = 0-19% control at 400 ppm) | ++ (++ = 90-100% control at 400 ppm) | 0% | 0% | 0% | 0% | 0% | 0% | 0% | 0% |  |  | 
Fc1ccc(Oc2ccnc3cnccc23)cc1 [Example 2, 4-(4-fluorophenoxy)-1,7-naphthyridine] | + (+ = 20-89% control at 400 ppm) | - (- = 0-19% control at 400 ppm) | + (+ = 20-89% control at 400 ppm) | - (- = 0-19% control at 400 ppm) | + (+ = 20-89% control at 400 ppm) | 0% | 0% | 0% | 0% | 40% | 0% | 30% | 0% |  |  | 
Fc1ccc(Oc2ccnc3ccncc23)cc1 [Example 3, 4-(4-fluorophenoxy)-1,6-naphthyridine] | - (- = 0-19% control at 400 ppm) | - (- = 0-19% control at 400 ppm) | - (- = 0-19% control at 400 ppm) | - (- = 0-19% control at 400 ppm) | - (- = 0-19% control at 400 ppm) | 0% | 0% | 0% | 0% | 0% | 0% | 0% | 0% |  |  | 
Fc1ccc(Oc2ccnc3cccnc23)cc1 [Example 4, 4-(4-fluorophenoxy)-1,5-naphthyridine] | + (+ = 20-89% control at 400 ppm) | + (+ = 20-89% control at 400 ppm) | + (+ = 20-89% control at 400 ppm) | - (- = 0-19% control at 400 ppm) | ++ (++ = 90-100% control at 400 ppm) |  | 0% |  | 0% |  | 80% |  | 80% |  |  | 
CC(C)(C)c1ccc(CCOc2ccnc3cccnc23)cc1 [Example 5, 4-[2-[4-(t-butyl)phenyl]ethoxy]-1,5-naphthyridine] | + (+ = 20-89% control at 400 ppm) | ++ (++ = 90-100% control at 400 ppm) | ++ (++ = 90-100% control at 400 ppm) | - (- = 0-19% control at 400 ppm) | +++ (+++ = 90-100% control at 100 ppm) | 0% | 0% | 0% | 0% | 100% | 100% | 50% | 80% |  |  | 
CCOc1ccc(CCCOc2ccnc3cccnc23)cc1 [Example 6, 4-[3-(4-ethoxyphenyl)propoxy]-1,5-naphthyridine] | - (- = 0-19% control at 400 ppm) | - (- = 0-19% control at 400 ppm) | - (- = 0-19% control at 400 ppm) | - (- = 0-19% control at 400 ppm) | - (- = 0-19% control at 400 ppm) | 0% | 0% | 0% | 0% | 0% | 0% | 0% | 0% |  |  | 
CC(C)(C)c1ccc(CCNc2ccnc3cccnc23)cc1 [Example 7, N-[2-[4-(t-butyl)phenyl]ethyl]-1,5-naphthyridin-4-amine] | ++ (++ = 90-100% control at 400 ppm) | ++ (++ = 90-100% control at 400 ppm) | +++ (+++ = 90-100% control at 100 ppm) | - (- = 0-19% control at 400 ppm) | +++ (+++ = 90-100% control at 100 ppm) | 0% | 0% | 0% | 0% | 90% | 100% | 90% | 100% |  |  | 
Clc1ccccc1Oc1ccnc2ncccc12 [Example 8, 4-(2-chlorophenoxy)-1,8-naphthyridine] | - (- = 0-19% control at 400 ppm) | + (+ = 20-89% control at 400 ppm) | + (+ = 20-89% control at 400 ppm) | - (- = 0-19% control at 400 ppm) | ++ (++ = 90-100% control at 400 ppm) | 0% | 0% | 0% | 0% | 0% | 0% | 0% | 0% |  |  | 
CCOc1ccc(CCOc2ccnc3cccnc23)cc1 [Example 9, 4-[2-(4-ethoxyphenyl)ethoxy]-1,5-naphthyridine] | + (+ = 20-89% control at 400 ppm) | ++ (++ = 90-100% control at 400 ppm) | +++ (+++ = 90-100% control at 100 ppm) | - (- = 0-19% control at 400 ppm) | ++ (++ = 90-100% control at 400 ppm) | 0% | 0% | 0% | 0% | 40% | 80% | 100% | 100% |  |  | 
c1ccc(CCNc2ccnc3cccnc23)cc1 [Example 10, N-(2-phenylethyl)-1,5-naphthyridin-4-amine] | + (+ = 20-89% control at 400 ppm) | + (+ = 20-89% control at 400 ppm) | + (+ = 20-89% control at 400 ppm) | - (- = 0-19% control at 400 ppm) | +++ (+++ = 90-100% control at 100 ppm) | 0% |  | 0% |  | 0% |  | 0% |  | + (+ = 20-89% control at 400 ppm) | + (+ = 20-89% control at 400 ppm) | - (- = 0-19% control at 400 ppm)
